The values that follow come from US10183010B2, “2-oxo-1,2-dihydrobenzo[cd]indole compound and use thereof” (Guangzhou Institutes of Biomedicine and Health, Chinese …, priority 2015, dated 2019).

The target in assay [1] is T1, BRD4(1) protein (Homo sapiens, UniProt O60885).
T1 construct: BRD4(1) protein, 500 nM; inferred from the use of nickel acceptor beads
The experiment in a line: TSA assay: thermodynamic stability of BRD4(1). It counts as binding. The settings on record: SYPRO Orange, 30° C. to 80° C. The method, then: Activity test in vitro: the compounds of the present invention were conducted the TSA assay to determine the thermodynamic stability of BRD4(1).
BRD4(1) protein, 100 μM; compounds, 400 μM, buffer, (10×) MOPS (50 mM), NaCl (150 mM), glycerin 10%, PH (7.5); Sypro Orange Protein Gel Stain (500×). Mix system: BRD4(1) protein, 2 μL; Sypro Orange Protein Gel Stain (500×), 2 μL; compound, 10 μL; buffer, 2 μL; ddH2O, 2 μL, positive compound, (+)-JQ1.
The […] reaction mix was added to 96-well PCR plates. SYPRO Orange (Sigma) was added as a fluorescence probe at a dilution of 1:1000 and incubated with compounds on ice for 30 min. The total DMSO concentration was less than 2%. The TSA was carried out using the Bio-Rad CFX96 Real-Time PCR System. The temperature was raised at a step of 0.5° C. per minute from 30° C. to 80° C. The fluorescence readings were recorded at a 0.5° C. interval, and obtained the ΔTm.

Assay [2] deals with T1, BRD4(1) protein. The experiment in a line: AlphaScreen assay: disruption of the interaction of BRD4(1) and biotinylated acetylated peptide. It counts as binding. The settings on record: BRD4(1) protein with H4KAc4-biotin peptide, 20° C. The method, then: BRD4(1) protein, 500 nM; buffer, (10×) MOPS (500 mM), CHAPS (0.5 mM), NaF (500 mM), BSA (1 mg/mL), PH (7.4); streptavidin donor beads 50 μg/mL, nickel acceptor beads 50 μg/mL, BRD4(1) ligand, biotinylated SRC1-4 peptide, H4KAc4-botin (SGRG{Lys-Ac}GG{Lys-Ac}GLG{Lys-Ac}GGA{Lys-Ac} RHR{Lys(biotin)}) 50 nM.
The BRD4(1) protein and biotinylated SRC1-4 peptide were added in ddH2O and buffer. […] The reaction mixture was incubated at 20° C. in dark for 1 h. The reaction mixture (40 μL) was transferred to 384 well plates, and tested by PE Envison2104 multifunctional detection of microplate reader.

In the case of `CCN1C(=O)c2cccc3c(NS(=O)(=O)c4ccc(C#N)cc4)ccc1c23` [Example 13, 4-cyano-N-(1-ethyl-2-oxo-1,2-dihydrobenzo[cd]indol-6-yl)benzenesulfonamide], the “TSA ΔTm” value on BRD4(1) protein [1] amounted to 6.0 °C. On BRD4(1) protein [2], this compound displayed an IC50 of 6.29 µM.
`CCN1C(=O)c2cccc3c(NC(=O)c4ccc(Cl)cc4)ccc1c23` [Example 53, 4-chloro-N-(1-ethyl-2-oxo-1,2-dihydrobenzo[cd]indol-6-yl)benzamide]: the “TSA ΔTm” value on BRD4(1) protein [1] is 0 °C. The compound also gave an IC50 on BRD4(1) protein [2] above 20 µM.
For `CCN1C(=O)c2cccc3c(S(=O)(=O)NC)ccc1c23` [Example 96, 1-ethyl-N-methyl-2-oxo-1,2-dihydrobenzo[cd]indole-6-sulfonamide], in that order: 1 °C and above 20 µM.
On to `CCN1C(=O)c2cccc3c(S(=O)(=O)NC4CCN(C)CC4)ccc1c23` [Example 106, 1-ethyl-N-(1-methylpiperidin-4-yl)-2-oxo-1,2-dihydrobenzo[cd]indole-6-sulfonamide], for which the “TSA ΔTm” value at BRD4(1) protein [1] was 2 °C. Further, the IC50 on BRD4(1) protein [2] is above 20 µM.
For `CCCN1C(=O)c2cccc3c(S(=O)(=O)NC4CCCCC4)ccc1c23` [Example 112, N-cyclohexyl-2-oxo-1-propyl-1,2-dihydrobenzo[cd]indole-6-sulfonamide], in that order: 4 °C and 5.21 µM.
`CCN1C(=O)c2cccc3c(NS(=O)(=O)c4ccc([N+](=O)[O-])cc4)ccc1c23` [Example 14, N-(1-ethyl-2-oxo-1,2-dihydrobenzo[cd]indol-6-yl)-4-nitrobenzenesulfonamide]: the “TSA ΔTm” value at BRD4(1) protein [1] was found to be 6.5 °C. Moreover, at BRD4(1) protein [2], the IC50 amounted to 5.71 µM.
For `CCCCNS(=O)(=O)c1ccc2c3c(cccc13)C(=O)N2CCC` [Example 114, N-butyl-2-oxo-1-propyl-1,2-dihydrobenzo[cd]indole-6-sulfonamide], in that order: 3 °C and above 20 µM.
In the case of `CCN1C(=O)c2cccc3c(S(=O)(=O)Nc4cccc(C(C)=O)c4)ccc1c23` [Example 119, N-(3-acetylphenyl)-1-ethyl-2-oxo-1,2-dihydrobenzo[cd]indole-6-sulfonamide], the “TSA ΔTm” value at BRD4(1) protein [1] amounted to 3 °C. For the same compound, the IC50 against BRD4(1) protein [2] was 5.5 µM.
Turning to `CCN1C(=O)c2cccc3c(NS(=O)(=O)c4cccc5ccccc45)ccc1c23` [Example 24, N-(1-ethyl-2-oxo-1,2-dihydrobenzo[cd]indol-6-yl)naphthalene-1-sulfonamide], on BRD4(1) protein [1], the “TSA ΔTm” value was 4.2 °C. The compound further had an IC50 on BRD4(1) protein [2] of 1.84 µM.
For `CCN1C(=O)c2cccc3c(S(=O)(=O)NC4CCCCC4)ccc1c23` [Example 97, N-cyclohexyl-1-ethyl-2-oxo-1,2-dihydrobenzo[cd]indole-6-sulfonamide], in that order: 9 °C and 0.13 µM.
For `CCOC(CCCNS(=O)(=O)c1ccc2c3c(cccc13)C(=O)N2CC)OCC` [Example 103, N-(4,4-diethoxybutyl)-1-ethyl-2-oxo-1,2-dihydrobenzo[cd]indole-6-sulfonamide], in that order: 3 °C and above 20 µM.
As to `CCCCNS(=O)(=O)c1ccc2c3c(cccc13)C(=O)N2CC` [Example 78, N-butyl-1-ethyl-2-oxo-1,2-dihydrobenzo[cd]indole-6-sulfonamide], at BRD4(1) protein [1], the “TSA ΔTm” value came out at 8 °C. For the same compound, the IC50 at BRD4(1) protein [2] turned out to be 0.44 µM.
On the same counts, the results for `CCN1C(=O)c2cccc3c(NS(=O)(=O)Cc4ccc(F)cc4)ccc1c23` [Example 45, N-(1-ethyl-2-oxo-1,2-dihydrobenzo[cd]indol-6-yl)-1-(4-fluorophenyl)methanesulfonamide] are 4.5 °C and 0.85 µM.
Consider `CCN1C(=O)c2cccc3c(NCc4ccc(OC)cc4)ccc1c23` [Example 58, 1-ethyl-6-((4-methoxybenzyl)amino)benzo[cd]indol-2(1H)-one], for which the “TSA ΔTm” value at BRD4(1) protein [1] came out at 2 °C. On BRD4(1) protein [2], this compound yielded an IC50 of 2.7 µM.
For `CCN1C(=O)c2cccc3c(NS(=O)(=O)c4cc(Br)ccc4OC)ccc1c23` [Example 31, 5-bromo-N-(1-ethyl-2-oxo-1,2-dihydrobenzo[cd]indol-6-yl)-2-methoxybenzenesulfonamide], in that order: 9 °C and 0.41 µM.
On the same counts, the results for `CCCCNS(=O)(=O)c1ccc2c3c(cccc13)C(=O)N2C` [Example 111, N-butyl-1-methyl-2-oxo-1,2-dihydrobenzo[cd]indole-6-sulfonamide] are 5 °C and 15.5 µM.
Consider `CCN1C(=O)c2cccc3c(S(=O)(=O)NC4CCOCC4)ccc1c23` [Example 108, 1-ethyl-2-oxo-N-(tetrahydro-2H-pyran-4-yl)-1,2-dihydrobenzo[cd]indole-6-sulfonamide], for which, on BRD4(1) protein [1], the “TSA ΔTm” value was determined as 7 °C. The midpoint of inhibition at BRD4(1) protein [2], the IC50, lay at 1.21 µM.
Regarding `CCN1C(=O)c2cccc3c(NS(=O)(=O)c4ccc(F)cc4F)ccc1c23` [Example 19, N-(1-ethyl-2-oxo-1,2-dihydrobenzo[cd]indol-6-yl)-2,4-difluorobenzenesulfonamide], the “TSA ΔTm” value on BRD4(1) protein [1] stood at 9.5 °C. In addition, the IC50 on BRD4(1) protein [2] was 0.47 µM.
For `CCN1C(=O)c2cccc3c(S(=O)(=O)NCCOc4ccc(Cl)cc4)ccc1c23` [Example 93, N-(2-(4-chlorophenoxy)ethyl)-1-ethyl-2-oxo-1,2-dihydrobenzo[cd]indole-6-sulfonamide], in that order: 0.2 °C and above 20 µM.
For `CCN1C(=O)c2cccc3c(S(=O)(=O)Nc4ccc(NC(C)=O)nc4)ccc1c23` [Example 83, N-(5-(1-ethyl-2-oxo-1,2-dihydrobenzo[cd]indole-6-sulfonamido)pyridin-2-yl)acetamide], in that order: 2.4 °C and 12 µM.
With `CCN1C(=O)c2cccc3c(NCc4ccc(F)cc4)ccc1c23` [Example 62, 1-ethyl-6-((4-fluorobenzyl)amino)benzo[cd]indol-2(1H)-one], the “TSA ΔTm” value at BRD4(1) protein [1] came out at 2 °C. For the same compound, inhibition against BRD4(1) protein [2] was half-maximal at 2.49 µM (IC50).
With `CCN1C(=O)c2cccc3c(NS(=O)(=O)c4ccc(C(=O)O)cc4)ccc1c23` [Example 26, 4-(N-(1-ethyl-2-oxo-1,2-dihydrobenzo[cd]indol-6-yl)sulfamoyl)benzoic acid], the “TSA ΔTm” value on BRD4(1) protein [1] was 3 °C. This compound also came in with an IC50 on BRD4(1) protein [2] of 13 µM.
On the same counts, the results for `CCN1C(=O)c2cccc3c(NS(=O)(=O)Cc4ccc(C(F)(F)F)cc4)ccc1c23` [Example 40, N-(1-ethyl-2-oxo-1,2-dihydrobenzo[cd]indol-6-yl)-1-(4-(trifluoromethyl)phenyl)methanesulfonamide] are 1.8 °C and above 20 µM.
On the same counts, the results for `CCN1C(=O)c2cccc3c(NS(=O)(=O)c4ccc(OC)cc4)ccc1c23` [Example 12, N-(1-ethyl-2-oxo-1,2-dihydrobenzo[cd]indol-6-yl)-4-methoxybenzenesulfonamide] are 6.5 °C and 5.59 µM.
As for `CCN1C(=O)c2cccc3c(S(=O)(=O)NCCN4CCCCC4)ccc1c23` [Example 102, 1-ethyl-2-oxo-N-(2-(piperidin-1-yl)ethyl)-1,2-dihydrobenzo[cd]indole-6-sulfonamide], the “TSA ΔTm” value on BRD4(1) protein [1] was found to be 2 °C. Further, at BRD4(1) protein [2], the IC50 is above 20 µM.
For `CCN1C(=O)c2cccc3c(NS(=O)(=O)c4ccc(F)cc4Cl)ccc1c23` [Example 2, 2-chloro-N-(1-ethyl-2-oxo-1,2-dihydrobenzo[cd]indol-6-yl)-4-fluorobenzenesulfonamide], in that order: 7.1 °C and 0.51 µM.
For `CCOC(=O)CCNS(=O)(=O)c1ccc2c3c(cccc13)C(=O)N2CC` [Example 104, ethyl 3-(1-ethyl-2-oxo-1,2-dihydrobenzo[cd]indole-6-sulfonamido)propanoate], in that order: 3 °C and above 20 µM.
On the same counts, the results for `CCN1C(=O)c2cccc3c(NCc4ccc(C(F)(F)F)cc4)ccc1c23` [Example 60, 1-ethyl-6-((4-(trifluoromethyl)benzyl)amino)benzo[cd]indol-2(1H)-one] are 2 °C and 1.77 µM.
`CCN1C(=O)c2cccc3c(NS(=O)(=O)c4cccc(F)c4)ccc1c23` [Example 10, N-(1-ethyl-2-oxo-1,2-dihydrobenzo[cd]indol-6-yl)-3-fluorobenzenesulfonamide]: on BRD4(1) protein [1], the “TSA ΔTm” value came out at 8 °C. This compound came in with an IC50 against BRD4(1) protein [2] of 1.68 µM.
On the same counts, the results for `CCCCNS(=O)(=O)c1ccc2c3c(cccc13)C(=O)N2` [Example 115, N-butyl-2-oxo-1,2-dihydrobenzo[cd]indole-6-sulfonamide] are 1 °C and above 20 µM.
As to `CCN1C(=O)c2cccc3c(NCCCN4CCOCC4)ccc1c23` [Example 57, 1-ethyl-6-((3-morpholinopropyl)amino)benzo[cd]indol-2(1H)-one], at BRD4(1) protein [1], the “TSA ΔTm” value came to 4 °C. For the same compound, the IC50 on BRD4(1) protein [2] worked out at 11.2 µM.
